Experimental data reported in US20090305995A1, “AGONISTS AND ANTAGONISTS OF THE SOMATOSTATIN RECEPTOR” (Novartis AG, priority 2004, published 2009).
≈ marks a conversion by molar mass, not a printed value. Where two headings read alike, the source gives them in different places.

What was measured:
[1] = high throughput solubility (HT-Solubility); assay type: physicochemical; settings: for water solubility (in words): see FIG. 10
hsst4 receptor = target: T1, hsst4 receptor (Homo sapiens, UniProt P31391); experiment: radioligand-binding displacement assay ([125I]LTT-SRIF28), receptor expressed in CCL39 cells; settings: hsst4; [125I]LTT-SRIF28 displacement
T1 construct: expressed in transfected cells; host or cells: Chinese hamster lung fibroblast (CCL39) cells
Procedure: The generated peptides are tested for their affinity to bind to human SRIF receptors expressed in Chinese hamster lung fibroblast (CCL39) cells. This is achieved in radioligand-binding assays, a displacement experiment in which the concentration of a substance is measured which is necessary for the replacement of 50% of a specifically bound radioligand ([^125I]LTT-SRIF28). Specific binding is measured as the total binding of receptor-specific radioligand minus the amount of radioligand bound in presence of unmarked SRIF-14 (100 nM, nonspecific binding).

[2] = high throughput permeability (HT-Permeability, log Pe); assay type: physicochemical; settings: PAMPA, Pe in cm/s
[3] = HT-logP o/w, high throughput assay based on artificial liquid membrane permeability; assay type: physicochemical; settings: octanol/water; for logP: read-out: HT LogP ohw
From the text: To be absorbed and transported by passive diffusion, drugs must be sufficiently lipophilic to penetrate the lipid cores of membranes, but not too lipophilic that they get retained and accumulated there. The lipophilictity of a compound is expressed by the octanol/water partition coefficient or distribution coefficient. A first approximation of substance polarity can either be given by computer assisted calculations giving Clog P values or by measurement of the partition coefficients in high-throughput assays (HT-log P o/w) (Faller et al., 2004; Wohnsland et al., 2001).
Octanol/water partition coefficients are measured in a high throughput assay based on artificial liquid membrane permeability. […] Still many approaches to calculate log P values are limited due to a lack of parameterization of certain fragments and fail with increasing molecular weight which implicates higher structural complexity. Similar problems and failures are observed in chromatographic determinations of log P: Peptides might undergo structural changes driven by interactions with the stationary phase. Decisive interactions between the stationary phase and the defolded analytes are therefore also based on the linear peptide sequence. For this reason measured HT-log P o/w values based on chromatographic assays employing stationary phases may lead to erroneous results.

[4] = pH 1, pH 1.0, read-out: HT-Solubility pH 1.0
[5] = pH 6.8, pH 6.8, read-out: HT-Solubility pH 6.8
[6] = pH 4, pH 4.0, read-out: HT-Permeability logPe pH 4.0 (converted)
[7] = pH 6.8, pH 6.8, read-out: HT-Permeability logPe pH 6.8 (converted)
[8] = pH 8, pH 8.0, read-out: HT-Permeability logPe pH 8.0 (converted)

T1 sequence (P31391 whole entry): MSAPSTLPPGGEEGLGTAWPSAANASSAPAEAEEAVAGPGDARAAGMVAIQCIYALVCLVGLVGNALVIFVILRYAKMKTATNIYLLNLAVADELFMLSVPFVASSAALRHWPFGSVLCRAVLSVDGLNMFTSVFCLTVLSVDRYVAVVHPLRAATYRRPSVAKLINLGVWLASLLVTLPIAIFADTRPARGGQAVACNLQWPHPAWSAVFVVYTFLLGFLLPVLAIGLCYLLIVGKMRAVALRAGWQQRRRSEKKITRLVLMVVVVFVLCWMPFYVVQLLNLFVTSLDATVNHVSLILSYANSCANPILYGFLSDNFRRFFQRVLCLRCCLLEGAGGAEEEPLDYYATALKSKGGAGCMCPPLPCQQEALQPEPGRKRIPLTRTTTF

| Structure (SMILES) | solubility [1, 4] [µg/mL] | solubility [1, 5] [µg/mL] | Kd (hsst4 receptor) [nM] | Papp [2, 6] [×10⁻⁶ cm/s] | logP [3] | Papp [2, 7] [×10⁻⁶ cm/s] | Papp [2, 8] [×10⁻⁶ cm/s] | water solubility (in words) [1] | HT-Solubility pH 1.0 ([1]; pH 1.0) [g 1-1] | HT-Solubility pH 6.8 ([1]; pH 6.8) [g 1-1] | HT LogP ohw [3] |
| --- | --- | --- | --- | --- | --- | --- | --- | --- | --- | --- | --- |
| C[C@H]1OC(=O)C[C@H]1NC(=O)C[C@H](CCCCN)NC(=O)[C@@H](Cc1c[nH]c2ccccc12)NC(=O)C[C@H](Cc1ccccc1)NC(=O)C1CCCCC1 [Compound 5, Cyclohexanoyl-(S)-β^3-HPhe-(R)-Trp-(S)-β^3-HLys-(R)-4-amino-(R)-5-methyl-dihydro-furan-2-one] | 35.7 (≈ 49.9 µM) | 14.3 (≈ 20 µM) | 1200 | 0.1 | 3.9 |  |  |  |  |  |  |
| C[C@@H](O)[C@@H](CC(N)=O)NC(=O)C[C@H](CCCCN)NC(=O)[C@@H](Cc1c[nH]c2ccccc12)NC(=O)C[C@H](Cc1ccccc1)NC(=O)C12CC3CC(CC(C3)C1)C2 [Compound 18, Adamantoyl-(S)-β^3-HPhe-(R)-Trp-(S)-β^3-HLys-(R), (R)—HThr-NH2] | 78.4 (≈ 100 µM) | 15.7 (≈ 20 µM) | 6170 | 0.1 | 3.2 |  |  |  |  |  |  |
| CC(=O)N[C@H](CC(=O)N[C@H](Cc1c[nH]c2ccccc12)C(=O)N[C@@H](CCCCN)CC(=O)NC1CCCC1)Cc1ccccc1 [Compound 30] |  |  | 62 |  |  |  |  |  |  |  |  |
| NCCCC[C@@H](CC(=O)NC1CCCC1)NC(=O)[C@@H](Cc1c[nH]c2ccccc12)NC(=O)C[C@H](Cc1ccccc1)NC(=O)C12CC3CC(CC(C3)C1)C2 [Compound 34, Adamantoyl-(S)-β^3-HPhe-(R)-Trp-(S)-β^3-HLys-cyclopentyl-amide] | 147 (≈ 200 µM) | 73.7 (≈ 100 µM) |  | 5.01 | 5.2 | 6.31 | 1.26 |  |  |  |  |
| CC(=O)N[C@H](CC(=O)N(C)[C@H](Cc1cn(C)c2ccccc12)C(=O)N[C@@H](CCCCN)CC(=O)N[C@@H]1CC(=O)O[C@@H]1C)Cc1ccccc1 [Compound 37, Ac—(S)-β^3-HPhe-(R)—N-Me-1-Me-Trp-(S)-β^3-HLys-(R)-4-amino-(R)-5-methyl-dihydro-furan-2-one] | 135 (≈ 200 µM) | 67.5 (≈ 100 µM) |  | 6.31 | 2.4 | 5.01 |  |  |  |  |  |
| CN[C@H](CC(=O)N[C@H](Cc1c[nH]c2ccccc12)C(=O)N[C@@H](CCCCN)CC(=O)N[C@@H]1CC(=O)O[C@@H]1C)Cc1ccccc1 [Compound 38, N-Me-(S)-β^3-HPhe-(R)-Trp-(S)-β^3-HLys-(R)-4-amino-(R)-5-methyl-dihydro-furan-2-one] | 124 (≈ 200 µM) | 30.9 (≈ 49.9 µM) |  | 0.1 | 3.2 |  |  |  |  |  |  |
| CC(=O)N(C)[C@H](CC(=O)N[C@H](Cc1c[nH]c2ccccc12)C(=O)N[C@@H](CCCCN)CC(=O)N[C@@H]1CC(=O)O[C@@H]1C)Cc1ccccc1 [Compound 39, Ac—N-Me-(S)-β^3-HPhe-(R)-Trp-(S)-β^3-HLys-(R)-4-amino-(R)-5-methyl-dihydro-furan-2-one] | 132 (≈ 200 µM) | 132 (≈ 200 µM) |  | 5.01 | 3.4 | 2 | 3.16 |  |  |  |  |
| CC(=O)N[C@H](CC(=O)N(C)[C@H](Cc1c[nH]c2ccccc12)C(=O)N[C@@H](CCCCN)CC(=O)N[C@@H]1CC(=O)O[C@@H]1C)Cc1ccccc1 [Compound 40, Ac—(S)-β^3-HPhe-(R)—N-Me-Trp-(S)-β^3-HLys-(R)-4-amino-(R)-5-methyl-dihydro-furan-2-one] | 66.1 (≈ 100 µM) | 13.2 (≈ 20 µM) |  | 0.1 | 3.3 |  |  |  |  |  |  |
| CCCCCN(C)C(=O)C[C@H](CCCCN)NC(=O)[C@@H](Cc1c[nH]c2ccccc12)NC(=O)C[C@H](Cc1ccccc1)NC(=O)CCC [Compound 41, Butyroyl-(S)-β^3-HPhe-(R)-Trp-(S)-β^3-HLys-methyl-pentyl-amide] | 132 (≈ 200 µM) | 132 (≈ 200 µM) |  | 2.51 | 3.6 | 3.98 | 1 | highest solubility values |  |  |  |
| CCCCN(C)C(=O)C[C@H](CCCCN)NC(=O)[C@@H](Cc1c[nH]c2ccccc12)NC(=O)C[C@H](Cc1ccccc1)NC(=O)CCC [Compound 42, Butyroyl-(S)-β^3-HPhe-(R)-Trp-(S)-β^3-HLys-methyl-butyl-amide] | 64.7 (≈ 100 µM) | 129 (≈ 200 µM) |  | 1 | 3.7 | 2 | 5.01 | highest solubility values |  |  |  |
| CCCCN(C)C(=O)C[C@H](CCCCN)NC(=O)[C@@H](Cc1c[nH]c2ccccc12)NC(=O)C[C@H](Cc1ccccc1)NC(=O)CC [Compound 43, Propionyl-(S)-β^3-HPhe-(R)-Trp-(S)-β^3-HLys-methyl-butyl-amide] | 127 (≈ 200 µM) | 126 (≈ 200 µM) |  | 1 | 3 | 2 | 1.26 | highest solubility values |  |  |  |
| CCCCCCN(C)C(=O)C[C@H](CCCCN)NC(=O)[C@@H](Cc1c[nH]c2ccccc12)N(Cc1ccccc1)C(=O)C[C@H](Cc1ccccc1)NC(=O)CC [Compound 68] | 75.1 (≈ 100 µM) | 15 (≈ 20 µM) |  | 0.1 | 5.5 |  |  | does not allow for good water solubilities |  |  |  |

The remaining lines, values ahead:

| solubility [1, 4] [µg/mL] | solubility [1, 5] [µg/mL] | Kd (hsst4 receptor) [nM] | Papp [2, 6] [×10⁻⁶ cm/s] | logP [3] | Papp [2, 7] [×10⁻⁶ cm/s] | Papp [2, 8] [×10⁻⁶ cm/s] | water solubility (in words) [1] | HT-Solubility pH 1.0 ([1]; pH 1.0) [g 1-1] | HT-Solubility pH 6.8 ([1]; pH 6.8) [g 1-1] | HT LogP ohw [3] | Structure (SMILES) |
| --- | --- | --- | --- | --- | --- | --- | --- | --- | --- | --- | --- |
| 127 (≈ 200 µM) | 127 (≈ 200 µM) |  | 3.98 | 3 | 1.58 | 1 | highest solubility values |  |  |  | CCCCCN(C)C(=O)C[C@H](CCCCN)NC(=O)[C@@H](Cc1c[nH]c2ccccc12)NC(=O)C[C@H](Cc1ccccc1)NC(C)=O [Compound 47, Ace-(S)-β^3-HPhe-(R)-Trp-(S)-β^3-HLys-methyl-pentyl-amide] |
|  |  |  |  |  |  | 3.98 | medium to good | 0.1266 | 0.0316 | 3.4 | CCCCCNC(=O)C[C@H](CCCCN)NC(=O)[C@@H](Cc1c[nH]c2ccccc12)NC(=O)C[C@H](Cc1ccccc1)NC(=O)CC [Compound 51, Propionyl-(S)-β^3-HPhe-(R)-Trp-(S)-β^3-HLys-pentyl-amide] |
| 124 (≈ 200 µM) | 30.9 (≈ 49.9 µM) |  | 7.94 | 3.1 | 5.01 | 10 | medium to good |  |  |  | CCCCNC(=O)C[C@H](CCCCN)NC(=O)[C@@H](Cc1c[nH]c2ccccc12)NC(=O)C[C@H](Cc1ccccc1)NC(=O)CC [Compound 53, Propionyl-(S)-β^3-HPhe-(R)-Trp-(S)-β^3-HLys-butyl-amide] |
| 127 (≈ 200 µM) | 12.7 (≈ 20.1 µM) |  | 0.1 | 3.5 |  |  |  |  |  |  | CCCCNC(=O)C[C@H](CCCCN)NC(=O)[C@@H](Cc1c[nH]c2ccccc12)NC(=O)C[C@H](Cc1ccccc1)NC(=O)CCC [Compound 54, Butyroyl-(S)-β^3-HPhe-(R)-Trp-(S)-β^3-HLys-butyl-amide] |
| 64.7 (≈ 100 µM) | 12.9 (≈ 19.9 µM) |  | 2.51 | 3.7 | 0.1 |  |  |  |  |  | CCCCCNC(=O)C[C@H](CCCCN)NC(=O)[C@@H](Cc1c[nH]c2ccccc12)NC(=O)C[C@H](Cc1ccccc1)NC(=O)CCC [Compound 55, Butyroyl-(S)-β^3-HPhe-(R)-Trp-(S)-β^3-HLys-pentyl-amide] |
| 129 (≈ 200 µM) | 12.9 (≈ 20 µM) |  | 0.1 | 3 |  |  |  |  |  |  | CCCC(=O)N[C@H](CC(=O)N[C@H](Cc1c[nH]c2ccccc12)C(=O)N[C@@H](CCCCN)CC(=O)NC1CCCC1)Cc1ccccc1 [Compound 56, Butyroyl-(S)-β^3-HPhe-(R)-Trp-(S)-β^3-HLys-cyclopentyl-amide] |
| 126 (≈ 200 µM) | 63.1 (≈ 100 µM) |  | 1 | 2.8 |  |  |  |  |  |  | CCC(=O)N[C@H](CC(=O)N[C@H](Cc1c[nH]c2ccccc12)C(=O)N[C@@H](CCCCN)CC(=O)NC1CCCC1)Cc1ccccc1 [Compound 57, Propionyl-(S)-β^3-HPhe-(R)-Trp-(S)-β^3-HLys-cyclopentyl-amide] |
| 115 (≈ 200 µM) | 115 (≈ 200 µM) |  | 1.26 | 2.8 |  | 1 |  |  |  |  | CCCC(=O)N[C@H](CC(=O)N[C@H](Cc1c[nH]c2ccccc12)C(=O)N[C@@H](CCCCN)CC(N)=O)Cc1ccccc1 [Compound 61, Butyroyl-(S)-β^3-HPhe-(R)-Trp-(S)-β^3-HLys-NH2] |
| 115 (≈ 200 µM) | 115 (≈ 200 µM) |  | 5.01 | 2.9 |  | 3.98 |  |  |  |  | NCCCC[C@@H](CC(=O)NC1CCCC1)NC(=O)[C@@H](Cc1c[nH]c2ccccc12)NC(=O)C[C@@H](N)Cc1ccccc1 [Compound 62, (S)-β^3-HPhe-(R)-Trp-(S)-β^3-HLys-cyclopentyl-amide] |
